Experimental data from patent US8003659B2, “Macrocyclic serine protease inhibitors” (Indenix Pharmaceuticals, Inc., priority 2008, dated 2011).
Where two headings read alike, the source gives them in different places.

Experiments:
[1] = target: T1, HCV NS3-NS4A protease (Hepatitis C virus genotype 1b, UniProt P26663); assay: HCV Protease Assay (SensoLyte 620 HCV Protease Assay kit); assay type: biochemical; conditions: 1.2 nM HCV NS3-NS4A protease, 60 min at room temperature, 5% DMSO
T1 construct: made in house
T1 sequence (P26663 1027-1208): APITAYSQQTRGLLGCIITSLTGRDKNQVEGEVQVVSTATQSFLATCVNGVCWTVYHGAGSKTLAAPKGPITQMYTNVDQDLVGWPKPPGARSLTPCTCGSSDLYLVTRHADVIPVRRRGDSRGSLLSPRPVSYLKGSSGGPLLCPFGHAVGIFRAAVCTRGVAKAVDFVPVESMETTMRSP
Method in brief: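 Protease at 1.2 nM, run with the SensoLyte 620 fluorogenic kit under supplier conditions, with compounds at several concentrations in buffer with 5% final DMSO. Reactions ran 60 min at room temperature before fluorescence reading; IC50 from four-parameter sigmoidal fit of percent inhibition.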

[2] = tested on: GS4.1 cells; assay: Cytotoxicity evaluation (Cell Titer 96 AQueous One Solution Cell Proliferation Assay); assay type: cell-based; conditions: cellular viability
Method: (§1) For cytotoxicity evaluation, GS4.1 cells were treated with compounds as described above and cellular viability was monitored using the Cell Titer 96 AQueous One Solution Cell Proliferation Assay (Promega). CC50 values were determined from the % cytotoxicity versus concentration data with Tecan Magellan software as described above.

[3] = tested on: Huh-7 cells containing HCV Con1 subgenomic replicon (GS4.1 cells); assay: HCV Replicon Assay (NS4A ELISA); assay type: cell-based; conditions: NS4A protein by ELISA
Method in brief: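 GS4.1 cells (Huh-7 with HCV Con1 subgenomic replicon) given ten 2-fold compound dilutions (top 75 μM) or a single 15 μM dose in 0.5% DMSO for 72 h at 37 °C. NS4A measured by cell ELISA (A492); EC50 from four-parameter sigmoidal fit, single-dose results as % inhibition at 15 μM.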

[4] = tested on: HCV genotype 2a infectious virus; assay: HCV genotype 2a infectious virus assay; assay type: cell-based, HCV (strain JFH-1; genotype 2a); conditions: Hepatitis C virus
Method: (§2) Compounds were tested in a HCV genotype 2a infectious virus assay and the results are summarized in Table 7, wherein A represents a value smaller than 1 μM, and B represents a value between 1 μM to 10 μM, C represents a value between 10 μM to 75 μM and D represents a value greater than 75 μM.
The HCV in vitro infection core ELISA assay measures the ability of a test compound to inhibit replication of an infectious HCV (strain JFH-1; genotype 2a) in cell culture. […] We have developed this model for determining the efficacy of antiviral compounds against an infectious virus in vitro using HCV producing cells (HPC), a proprietary Huh-7-derived cell sublineage capable of propagating the JFH-1 HCV virus. The readout of the assay is quantification of HCV core protein by ELISA 5 days post infection with JFH-1 virus and treatment with a test compound.
Ninety-six-well Corning Costar plates were seeded with HPC cells at a density of 3.0×10^3 cells per well in 50 μL of Huh-7 media. Compound stock solutions were made up freshly in Huh-7 media (DMEM (containing glucose, L-glutamine and sodium pyruvate), 10% FBS, 100 IU/mL penicillin, 100 μg/mL streptomycin, 2 mM GlutaMAX, 1% MEM non-essential amino acids) as 2× stock. Seven additional 3-fold drug dilutions were prepared from the 2× stocks in Huh-7 media. At least 4 hours after HPC cells were seeded, the media in the 96-well culture plates was aspirated and 50 μL of each drug dilution and 50 μL of JFH-1 HCV was added to each well.
At 16 hrs post treatment and infection, the virus inoculum was removed by aspiration. The cultures were treated at the same final concentrations of drug diluted to 1× in Huh-7 media to a final volume of 200 μL. Cells were incubated in the presence of drug for 4 additional days at 37° C./5% CO2.
Media was removed from the plates by aspiration. Cells were fixed with 250 μL 1:1 acetone:methanol for 90 seconds, washed once in PBS and then three times with 1×KPL wash solution. The assay plates were then blocked with 150 μL/well 10% FBS-TNE (50 mM Tris-HCl (pH 7.5; Sigma), 100 mM NaCl, 1 mM EDTA with 10% FBS) for 1 hr at room temperature. Cells were washed three times with 1×KPL wash solution and incubated with 100 μL/well anti-hepatitis C core mAb (1 mg/mL stock diluted 1:500 in 10% FBS-TNE) for 2 hours at 37° C. Cells were washed three times with 1×KPL wash solution and incubated with 100 μL/well HRP-goat anti-mouse antibody (diluted 1:2,500 in 10% FBS-TNE) for 1 hr at 37° C.
OPD solution was prepared using 1 OPD tablet+12 mL citrate/phosphate buffer (16 mM citric acid, 27 mM Na2HPO4) plus 5 μL 30% H2O2 per plate. Cells were washed three times with 1×KPL wash solution and developed with 100 μL/well OPD solution for 30 minutes in the dark at room temperature. The reaction was stopped with 100 μL/well of 2NH2SO4, and absorbance measured at A490 nm in a Victor^3 V 1420 multilabel counter (Perkin Elmer). The EC50 values for each compound were calculated from dose response curves from the resulting best-fit equations determined by Microsoft Excel and XLfit 4.1 software. The negative control for inhibition of virus replication was untreated HPC cells infected with the JFH-1 HCV virus strain. The negative ELISA control was untreated, uninfected HPC cells. The positive ELISA control was untreated HPC cells infected the JFH-1 HCV virus strain.

[5] = Cytotoxicity evaluation (Cell Titer 96 AQueous One Solution Cell Proliferation Assay); assay type: cell-based; conditions: human; GS4.1 cells, cellular viability
Method: as §1

[6] = rcm bond, 14-membered ring, DCE
[7] = tested on: genotype 1b replicon; assay: Antiviral activity in a genotype 1b replicon assay; assay type: cell-based, HCV; conditions: Hepatitis C virus; genotype 1b replicon assay as described in Example 32; read-out: EC50
Method: General procedure: Huh-7 cells containing HCV Con1 subgenomic replicon (GS4.1 cells) were grown in Dulbecco's Modified Eagle Medium (DMEM) supplemented with 10% fetal bovine serum (FBS), 2 mM L-glutamine, 110 mg/L sodium pyruvate, 1× non-essential amino acids, 100 U/mL penicillin-streptomycin, and 0.5 mg/mL G418 (Invitrogen). For dose-response testing, the cells were seeded in 96-well plates at 7.5×10^3 cells/well in a volume of 50 μL, and incubated at 37° C./5% CO2. Three hours after plating, 50 μL of ten 2-fold serial dilutions of compounds (highest concentration, 75 μM) were added, and cell cultures were incubated at 37° C./5% CO2 in the presence of 0.5% DMSO. Alternatively, compounds were tested at a single concentration of 15 μM. In all cases, Huh-7 cells lacking the HCV replicon served as negative control. The cells were incubated in the presence of compounds for 72 hr after which they were monitored for expression of the NS4A protein by enzyme-linked immunosorbent assay (ELISA). For this, the plates were then fixed for 1 min with acetone/methanol (1:1, v/v), washed twice with phosphate-buffered saline (PBS), 0.1% Tween 20, blocked for 1 hr at room temperature with TNE buffer containing 10% FBS and then incubated for 2 hr at 37° C. with the anti-NS4A mouse monoclonal antibody A-236 (ViroGen) diluted in the same buffer. After washing three times with PBS, 0.1% Tween 20, the cells were incubated 1 hr at 37° C. with anti-mouse immunoglobulin G-peroxidase conjugate in TNE, 10% FBS. After washing as described above, the reaction was developed with O-phenylenediamine (Zymed). The reaction was stopped after 30 min with 2 NH2SO4, and absorbance was read at 492 nm using Sunrise Tecan spectrophotometer. EC50 values were determined from the % inhibition versus concentration data using a sigmoidal non-linear regression analysis based on four parameters with Tecan Magellan software. When screening at a single concentration, the results were expressed as % inhibition at 15 μM.
as §2, with “a” for “a HCV”, “1b replicon” for “2a infectious virus”, “assay as described in Example 32” for “assay”, “6,” for “7,”

[8] = Cytotoxicity (CC50) in the genotype 1b replicon assay; assay type: cell-based; conditions: human, GS4.1 cells; genotype 1b replicon assay as described in Example 32
Method: as §1
as §2, with “a” for “a HCV”, “1b replicon” for “2a infectious virus”, “assay as described in Example 32” for “assay”, “6,” for “7,”

[9] = Hepatitis C virus, Huh-7, 72 hr

| SMILES | IC50 [1] [nM] | CC50 [2] [nM] | EC50 ([3]; 72 hr) [nM] | CC50 [5] [nM] | EC50 [3, 9] [nM] | also measured |
| --- | --- | --- | --- | --- | --- | --- |
| COc1ccc2c(O[C@H]3C[C@H]4C(=O)N(C)CCCC/C=C\[C@@H]5C[C@@]5(C(=O)NS(=O)(=O)C5(C)CC5)NC(=O)N4C3)cc(-c3csc(C#N)n3)nc2c1Cl [Compound T2, (Z)-(4R,6S,15S,17S)-[17-[8-chloro-7-methoxy-2-(2-cyanothiazol-4-yl)quinolin-4-yloxy]-13-N-methyl-2,14-dioxo-1,3,13-triazatricyclo-[13.3.0.0]octadec-7-en-4-yl]carbonyl-(1-methylcyclopropyl)sulfonamide] | < 1000 | > 75000 | < 1000 | – | – | – |
| COc1ccc2c(O[C@H]3C[C@H]4C(=O)N(C)CCCC/C=C\[C@@H]5C[C@@]5(C(=O)NS(=O)(=O)C5(C)CC5)NC(=O)N4C3)cc(-c3nc(C(F)(F)F)cs3)nc2c1C [Compound 68b, (Z)-(4R,6S,15S,17S)-[17-[7-methoxy-8-methyl-2-(4-trifluoromethythiazol-2-yl)quinolin-4-yloxy]-13-N-methyl-2,14-dioxo-1,3,13-triazatricyclo[13.3.0.0]octadec-7-en-4-yl]carbonyl(1-methylcyclopropyl)sulfonamide] | < 1000 | – | – | > 75000 | < 1000 | EC50 [4]: < 1000 nM; ring closure, isolated yield ([6]; from C=CCCCCN(C)C(=O)[C@@H]1C[C@H](Oc2cc(-c3nc(C(F)(F)F)cs3)nc3c(C)c(OC)ccc23)CN1C(=O)N[C@]1(C(=O)NS(=O)(=O)C2(C)CC2)C[C@H]1C=C, Zhan 1B (8%), 4.9 mM, 75.0 °C, 4.33 h): 30%; EC50 [7]: < 1000 nM; CC50 [8]: 10000 to 75000 nM |
| COc1ccc2c(O[C@@H]3C[C@H]4C(=O)N(C)CCCCCC/C=C\[C@@H]5C[C@@]5(C(=O)NS(=O)(=O)C5(C)CC5)NC(=O)N4C3)cc(-c3nc(C(C)C)cs3)nc2c1C [Compound 76b] | < 1000 | > 75000 | 1000 to 10000 | – | – | – |
| COc1ccc2c(O[C@H]3C[C@H]4C(=O)N(C)CCCCC=C[C@@H]5C[C@@]5(C(=O)NS(=O)(=O)C5CC5)NC(=O)N4C3)cc(-n3ccc(C(F)(F)F)n3)nc2c1Cl | – | – | – | – | – | ring closure, isolated yield ([6]; from C=CCCCCN(C)C(=O)[C@@H]1C[C@H](Oc2cc(-n3ccc(C(F)(F)F)n3)nc3c(Cl)c(OC)ccc23)CN1C(=O)N[C@]1(C(=O)NS(=O)(=O)C2CC2)C[C@H]1C=C, Zhan 1B, 1.0 mM, 60.0 °C, 18.0 h): 40% |
| COc1ccc2c(O[C@@H]3C[C@H]4C(=O)N(C)CCCCC/C=C\[C@@H]5C[C@@]5(C(=O)NS(=O)(=O)C5(C)CC5)NC(=O)N4C3)cc(-c3nc(C(C)C)cs3)nc2c1C [Compound 76a, (Z)-(4R,6S,16S,18R)-[2,15-dioxo-18-[7-methoxy-8-methyl-2-(4-isopropylthiazol-2-yl)quinolin-4-yloxy]-14-N-methyl-1,3,14-triazatricyclo[14.3.0.0]nonadec-7-en-4-yl]carbonyl(1-methyl-cyclopropyl)sulfonamide] | 1000 to 10000 | > 75000 | 1000 to 10000 | – | – | – |
| CCOC(=O)[C@@]12C[C@@H]1C=CCCCCN(C)C(=O)[C@@H]1C[C@@H](O[Si](C)(C)C(C)(C)C)CN1C(=O)N2 | – | – | – | – | – | ring closure, isolated yield ([6]; from C=CCCCCN(C)C(=O)[C@@H]1C[C@@H](O[Si](C)(C)C(C)(C)C)CN1C(=O)N[C@]1(C(=O)OCC)C[C@@H]1C=C, Hoveyda-Grubbs II (6%), 1.9 mM, 3.0 h): 51% |
| C=Cc1csc(-c2cc(O[C@H]3C[C@H]4C(=O)N(C)CCCC/C=C\[C@@H]5C[C@@]5(C(=O)NS(=O)(=O)C5(C)CC5)NC(=O)N4C3)c3ccc(OC)c(Cl)c3n2)n1 [AH, (Z)-(4R,6S,15S,17S)-[17-[8-chloro-7-methoxy-2-(4-vinylthiazol-2-yl)quinolin-4-yloxy]-13-N-methyl-2,14-dioxo-1,3,13-triazatricyclo-[13.3.0.0]octadec-7-en-4-yl]carbonyl(1-methyl-cyclopropyl)sulfonamide] | < 1000 | – | – | 10000 to 75000 | < 1000 | – |
| COc1ccc2c(O[C@H]3C[C@H]4C(=O)N(C)CCCC/C=C\[C@@H]5C[C@@]5(C(=O)NS(=O)(=O)C5(C)CC5)NC(=O)N4C3)cc(-n3ccc(C(C)C)n3)nc2c1C [Compound 91b, (Z)-(4R,6S,15S,17S)-[17-[8-methyl-7-methoxy-2-(3-isopropyl-1H-pyrazol-1-yl)quinolin-4-yloxy]-13-N-methyl-2,14-dioxo-1,3,13-triazatricyclo[13.3.0.0]octadec-7-ene-4-yl]carbonyl(1-methylcyclopropyl)sulfonamide] | < 1000 | – | – | 10000 to 75000 | < 1000 | – |
| COc1ccc2c(O[C@H]3C[C@H]4C(=O)N(C)CCCC/C=C\[C@@H]5C[C@@]5(C(=O)NS(=O)(=O)C5CC5)NC(=O)N4C3)cc(-c3nc(C(F)(F)F)cs3)nc2c1C [Compound 69b, (Z)-(4R,6S,15S,17S)-[17-[7-methoxy-8-methyl-2-(4-trifluoromethythiazol-2-yl)quinolin-4-yloxy]-13-N-methyl-2,14-dioxo-1,3,13-triazatricyclo[13.3.0.0]octadec-7-en-4-yl]carbonyl(cyclopropyl)sulfonamide] | < 1000 | – | – | > 75000 | < 1000 | EC50 [4]: < 1000 nM; EC50 [7]: < 1000 nM; CC50 [8]: > 75000 nM |
